“Also recorded” adds a separate entry of the source.
How the values were obtained:
[1] = In vitro biostability in renal homogenate (HPLC)
Experimental: The assay was based on HPLC determination of peptide degradation as a function of time in renal homogenate at 37° C.

[2] = Pharmacokinetics following IV & SC administration; conditions: for dose excreted: urine
[3] = test system: growth hormone (GH) release; assay: In-vivo inhibition of growth hormone release; design: species or system Wistar male rats
Experimental: Inhibition of growth hormone (GH) release as a result of peptide administration was measured in Wistar male rats.
Adult male Wistar rats weighing 200-250 g, were maintained on a constant light-dark cycle (light from 8:00 to 20:00 h), temperature (21±3° C.), and relative humidity (55±10%). Laboratory chow and tap water were available ad libitum. On the day of the experiment, rats were anesthetized with Nembutal (IP, 60 mg/kg). Ten minutes after anesthesia, drugs were administered S.C. at 0.01-100 microgram/kg dose. Stimulation of GH was performed by I.V. administration of 0.5 g/kg of L-Arginine through femoral vein. Sampling was carried out following 5 minutes of stimulation, at 15 or 30 minutes after peptide administration. Blood samples were collected form abdominal vena-cava into tubes containing heparin (15 units per ml of blood) and centrifuged immediately. Plasma was separated and kept frozen at −20° C. until assayed. Rat growth hormone (rGH) [^125I] levels were determined by means of a radioimmunoassay kit (Amersham). The standard in this kit has been calibrated against a reference standard preparation (NIH-RP2) obtained from the National Institute of Diabetes and Digestive and Kidney Diseases. All samples were measured in duplicate.

insulin release = assay: In-vivo effect on insulin release; design: species or system Wistar male rats
Experimental: Insulin stimulation was induced by IV bolus administration of D-glucose to overnight fasted rats.
An in-vivo determination of insulin release as a result of peptide administration was measured in Wistar male rats. […] Time course profiles for […] release under constant experimental conditions were measured.
Male Wistar rats were fasted overnight. Animals were anesthetized with Nembutal (IP, 60 mg/kg). Ten minutes after anesthesia, drugs were administrated S.C. at 0.01-100 microgram/kg dose 30 minutes before stimulation of insulin secretion performed by I.V. administration of 0.5 g/kg of D-glucose, 5 minutes before blood collection from abdominal Vena-cava. Hormone levels wer measured by RIA.

[4] = test system: Chromogranin A release from BON-1; assay: Inhibition of Chromogranin A release from BON-1; assay type: cell-based; conditions: human Carcinoid cell line BON-1
Description: Assessment of Chromogranin A release from BON-1 is an important assay aimed at identifying potential anti Carcinoid drugs. Chromagranin A is one of the principal mediators in degranulation of tumor granules, which secrete excessive amounts of vasoactive substances from Carcinoid tumors.

[5] = test system: human Carcinoid BON-1 cells; assay: Inhibition of cAMP in human Carcinoid BON-1 cells; assay type: cell-based; conditions: following Forskolin stimulation
Description: The activation of SST-R5 leads to the reduction of Adenylate Cyclase activity. Somatostatin receptors including type-5 receptors are expressed in the human Carcinoid derived cell line BON-1. This human cell culture served as an in-vitro discovery assay for novel Carcinoid therapeutics. Interaction of somatostatin analogs with Somatostatin receptors expressed in this system subsequently affects cellular functionality of BON-1.

SSTR-1 = target: T1, SSTR-1 (Homo sapiens, UniProt P30872); assay: Inhibition of 125I-Tyr11-SRIF binding to membrane preparations expressing SSTR-1; conditions: read-out: Percent inhibition of SRIF-14 binding
T1 construct: expressed in transfected cells
T1 sequence (P30872 whole entry): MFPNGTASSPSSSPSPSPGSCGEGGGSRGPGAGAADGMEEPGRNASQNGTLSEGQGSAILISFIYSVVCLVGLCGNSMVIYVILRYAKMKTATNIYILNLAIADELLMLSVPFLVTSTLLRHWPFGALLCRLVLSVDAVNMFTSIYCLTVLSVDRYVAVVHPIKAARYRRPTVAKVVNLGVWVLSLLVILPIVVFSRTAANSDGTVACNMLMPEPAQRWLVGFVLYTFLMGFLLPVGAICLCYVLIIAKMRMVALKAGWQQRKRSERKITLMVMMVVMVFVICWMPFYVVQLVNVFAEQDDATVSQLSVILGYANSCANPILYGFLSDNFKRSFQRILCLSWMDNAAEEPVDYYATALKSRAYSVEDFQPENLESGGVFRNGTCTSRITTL
Experimental: The somatostatin analogs were tested for their potency in inhibition of the binding of ^125I-Tyr^11-SRIF (based on the method described by Raynor et. al., Molecular Pharmacology, 1993, 43, 838-844) to membrane preparations expressing the transmembranal somatostatin receptors (SSTR-1, 2, 3, 4 or 5). The receptor preparations used for these tests were either from the cloned human receptors selectively and stably expressed in Chinese Hamster Ovary (CHO) cells or from cell lines naturally expressing the SSTRs. […] The binding reactions were filtered, the filters were washed and the bound radioactivity was counted in gamma counter. Non specific binding was defined as the radioactivity remaining bound in the presence of 1 μM unlabeled SRIF-14.
In order to validate positive signals of the binding tests, and to eliminate non-specific signals, samples of irrelevant peptides, such as GnRH, that were synthesized and handled using the same procedures, were tested in the same assays as negative control samples. These samples had no binding activity in any of the assays. Results are shown below in Tables 5 and 6 and FIG. 1.

[6] = Metabolic bio-stability against degradation by enzyme mixtures; assay type: in vitro ADME; conditions: in words; renal homogenate, rat liver homogenate and human serum
[7] = test system: other G-protein coupled receptors; assay: Binding to non-somatostatin G-protein coupled receptors; conditions: screening vs. Octreotide and SRIF
Description: This characteristic is of great advantageous because binding to non-somatostatin receptors could cause potential adverse effects in the body.
NovaScreen (Hanover, Md.) performed an assessment for nonspecific binding to various G-protein coupled receptor families. Binding studies to Neurokinin, Opiate and Muscarinic receptors were based on a comparison between the native hormone Somatostatin, Ocreotide and PTR 3173.

[8] = kidney or brush border membranes
[9] = Table 4, physiological selectivity

**Q.** Which results are given for `C[C@@H](O)[C@@H]1NC(=O)[C@H](CCCCN)NC(=O)[C@@H](Cc2c[nH]c3ccccc23)NC(=O)[C@H](Cc2c[nH]c3ccccc23)NC(=O)[C@H](Cc2ccccc2)NC(=O)CCCNC(=O)CCCN(CC(N)=O)C(=O)[C@H](Cc2ccccc2)NC1=O` [PTR 3173, GABA*-Phe-Trp-(D)Trp-Lys-Thr-Phe-Gly(C3)-X]?
**A.** Percent of intact molecule after incubation in renal homogenate ([1]; Time 0 hrs, 37° C.): 100%; remaining at 1 h [1, 8]: 100%; remaining at 3 h [1, 8]: 100%; remaining at 24 h [1, 8]: 100%; Clearance ([2]; SC, Conscious Wistar rats): 13.3 mL/min/kg; Clearance ([2]; Wistar, rat, in vivo, iv): 13 mL/min/kg; Vd ([2]; Wistar, rat, in vivo, iv): 0.653 L/kg; half-life ([2]; Wistar, rat, in vivo, iv, T½β (min) circulating half life, Conscious Wistar rats): 0.517 h; bioavailability ([2]; Wistar, rat, in vivo, sc): 99.6%; half-life ([2]; Wistar, rat, in vivo, sc, T½β (min) circulating half life, Conscious Wistar rats): 2.83 h; half-life ([2]; Wistar, rat, in vivo, sc, circulatory half-life, subcutaneous administration to rats): ~3 h; dose excreted ([2]; Wistar, rat, iv): 10.3%; dose excreted ([2]; Wistar, rat, sc): 15.9%; pharmacokinetic profile ([2]; subcutaneous administration, animals): flip flop (a slow release kinetic) pharmacokinetcs; effect on growth hormone release ([3]; 100 micrograms per kilogram, L-arginine stimulation, Nembutal anesthesia, FIG. 3): equipotent inhibitors of growth hormone release in comparison to Octreotide; GH ID50 [3, 9]: 0.1 µg/kg; effect on growth hormone (general statement) ([3]; in words, no dose stated): significant inhibition with prolonged duration of action on the Growth Hormone-IGF-1 axis of a similar magnitude as the drug Octreotide; also recorded: potent inhibitor of growth hormone; effect on insulin release (insulin release; 100 micrograms per kilogram, D-glucose stimulation, FIG. 5a): inactive on insulin; Insulin ID50 (insulin release; [9]): >1000 µg/kg; effect on insulin release (insulin release; dose of up to 1 milligram per kilogram, FIG. 5b): no appreciable effect on insulin; effect on insulin (general statement) (insulin release; in words, no dose stated): lacks the disadvantages of Octreotide such as inhibition of Insulin secretion; also recorded: no considerable effect on insulin; GH/Insulin (insulin release; ratio of ID50 values, Table 4): >10,000; inhibition of Chromogranin A release [4]: inhibits Chromogranin A release; also recorded: significant anti-release effect; also recorded: equivalent potency with the native hormone Somatostatin; inhibition of cAMP production [5]: equipotent to clinically used drug Octreotide; inhibition at 10 pM (SSTR-1): 0%; inhibition at 0.0001 µM (SSTR-1): 0%; inhibition at 0.001 µM (SSTR-1): 0%; inhibition at 0.01 µM (SSTR-1): 0%; inhibition at 0.1 µM (SSTR-1): 5%; inhibition at 1 µM (SSTR-1): 15%; metabolic bio-stability against degradation by enzymes [6]: considerable metabolic bio-stability against degradation by enzymes; binding to other G-protein coupled receptors [7]: binds significantly less other G-protein coupled receptors than Octreotide
